ChEMBL document CHEMBL2010729, “Facile synthesis of triterpenoid saponins bearing β-Glu/Gal-(1→3)-β-GluA methyl ester and their cytotoxic activities” (Bioorg Med Chem Lett, 2012)
Active and inactive are the calls of the source. No cut-off for these calls is given here.

Experiments:
[1] = test system: MCF7; experiment: Cytotoxicity against human MCF7 cells after 48 hrs by MTT assay; type: functional, cell-based; conditions: MCF7, 48 h
[2] = test system: HepG2; experiment: Cytotoxicity against human HepG2 cells after 48 hrs by MTT assay; type: functional, cell-based; conditions: HepG2, 48 h
[3] = test system: K562; experiment: Cytotoxicity against human K562 cells after 48 hrs by MTT assay; type: functional, cell-based; conditions: K562, 48 h
[4] = test system: MCF7; experiment: Induction of apoptosis in human MCF7 cells assessed as apoptotic cells at 1 uM after 24 hrs using propidium iodide/annexin V staining by flow cytometry (reference value: 3.07 %); type: functional
[5] = test system: MCF7; experiment: Induction of apoptosis in human MCF7 cells assessed as cell shrinkage at 1 to 3 uM after 24 hrs by DAPI staining based confocal laser scanning microscopy; type: functional
[6] = test system: MCF7; experiment: Induction of apoptosis in human MCF7 cells assessed as membrane blebbing at 1 to 3 uM after 24 hrs by DAPI staining based confocal laser scanning microscopy; type: functional, cell-based
[7] = test system: MCF7; experiment: Induction of apoptosis in human MCF7 cells assessed as chromatin condensation at 1 to 3 uM after 24 hrs by DAPI staining based confocal laser scanning microscopy; type: functional, cell-based
[8] = test system: MCF7; experiment: Induction of apoptosis in human MCF7 cells assessed as apoptotic body formation at 1 to 3 uM after 24 hrs by DAPI staining based confocal laser scanning microscopy; type: functional, cell-based
[9] = test system: MCF7; experiment: Induction of apoptosis in human MCF7 cells assessed as late apoptotic cells at 1 uM after 24 hrs using propidium iodide/annexin V staining by flow cytometry (reference value: 0.11 %); type: functional
[10] = test system: MCF7; experiment: Induction of apoptosis in human MCF7 cells assessed as pre-necrotic cells at 1 uM after 24 hrs using propidium iodide/annexin V staining by flow cytometry (reference value: 0.05 %); type: functional
[11] = test system: MCF7; experiment: Induction of apoptosis in human MCF7 cells assessed as apoptotic cells at 2 uM after 24 hrs using propidium iodide/annexin V staining by flow cytometry (reference value: 3.07 %); type: functional
[12] = test system: MCF7; experiment: Induction of apoptosis in human MCF7 cells assessed as late apoptotic cells at 2 uM after 24 hrs using propidium iodide/annexin V staining by flow cytometry (reference value: 0.11 %); type: functional
[13] = test system: MCF7; experiment: Induction of apoptosis in human MCF7 cells assessed as pre-necrotic cells at 2 uM after 24 hrs using propidium iodide/annexin V staining by flow cytometry (reference value: 0.05 %); type: functional
[14] = test system: MCF7; experiment: Induction of apoptosis in human MCF7 cells assessed as apoptotic cells at 3 uM after 24 hrs using propidium iodide/annexin V staining by flow cytometry (reference value: 3.07 %); type: functional
[15] = test system: MCF7; experiment: Induction of apoptosis in human MCF7 cells assessed as late apoptotic cells at 3 uM after 24 hrs using propidium iodide/annexin V staining by flow cytometry (reference value: 0.11 %); type: functional
[16] = test system: MCF7; experiment: Induction of apoptosis in human MCF7 cells assessed as pre-necrotic cells at 3 uM after 24 hrs using propidium iodide/annexin V staining by flow cytometry (reference value: 0.05 %); type: functional
[17] = test system: MCF7; experiment: Induction of apoptosis in human MCF7 cells assessed as increase in ROS production after 24 hrs by fluorescence analysis; type: functional, cell-based
[18] = test system: MCF7; experiment: Induction of apoptosis in human MCF7 cells assessed as loss of mitochondrial membrane potential by JC-1 staining based flow cytometry; type: functional, cell-based

In the case of COC(=O)[C@H]1O[C@@H](O[C@H]2CC[C@]3(C)[C@H]4CC=C5[C@@H]6[C@@H](C)[C@H](C)CC[C@]6(C(=O)O)CC[C@@]5(C)[C@]4(C)CC[C@H]3C2(C)C)[C@H](O)[C@@H](O[C@@H]2O[C@H](CO)[C@H](O)[C@H](O)[C@H]2O)[C@@H]1O, the IC50 [1] is reported as 22.1 µM, the IC50 [2] is reported as 47.1 µM and the IC50 [3] is reported as > 60 µM.
COC(=O)[C@H]1O[C@@H](O[C@H]2CC[C@]3(C)[C@H]4C(=O)C=C5[C@@H]6C[C@@](C)(C(=O)O)CC[C@]6(C)CC[C@@]5(C)[C@]4(C)CC[C@H]3C2(C)C)[C@H](O)[C@@H](O[C@@H]2O[C@H](CO)[C@@H](O)[C@H](O)[C@H]2O)[C@@H]1O was tested, and the IC50 [1] was > 60 µM, the IC50 [2] was > 60 µM and the IC50 [3] was > 60 µM.
COC(=O)[C@H]1O[C@@H](O[C@H]2CC[C@]3(C)[C@H]4C(=O)C=C5[C@@H]6C[C@@](C)(C(=O)O)CC[C@]6(C)CC[C@@]5(C)[C@]4(C)CC[C@H]3C2(C)C)[C@H](O)[C@@H](O[C@@H]2O[C@H](CO)[C@H](O)[C@H](O)[C@H]2O)[C@@H]1O was tested, and the IC50 [1] was > 60 µM, the IC50 [2] was > 60 µM and the IC50 [3] was > 60 µM.
COC(=O)[C@H]1O[C@@H](O[C@H]2CC[C@]3(C)[C@H]4CC=C5[C@@H]6CC(C)(C)CC[C@]6(C(=O)O)CC[C@@]5(C)[C@]4(C)CC[C@H]3C2(C)C)[C@H](O)[C@@H](O[C@@H]2O[C@H](CO)[C@@H](O)[C@H](O)[C@H]2O)[C@@H]1O [SPINASAPONIN A METHYL ESTER] gave an IC50 [1] of 4.52 µM, an IC50 [2] of 8.36 µM and an IC50 [3] of 15.7 µM.
For COC(=O)[C@H]1O[C@@H](O[C@H]2CC[C@]3(C)[C@H]4CC=C5[C@@H]6[C@@H](C)[C@H](C)CC[C@]6(C(=O)O)CC[C@@]5(C)[C@]4(C)CC[C@H]3C2(C)C)[C@H](O)[C@@H](O[C@@H]2O[C@H](CO)[C@@H](O)[C@H](O)[C@H]2O)[C@@H]1O, the IC50 [1] was 23.3 µM, the IC50 [2] was 44.7 µM and the IC50 [3] was > 60 µM.
Compound COC(=O)[C@H]1O[C@@H](O[C@H]2CC[C@]3(C)[C@H]4CC=C5[C@@H]6CC(C)(C)CC[C@]6(C(=O)O)CC[C@@]5(C)[C@]4(C)CC[C@H]3C2(C)C)[C@H](O)[C@@H](O[C@@H]2O[C@H](CO)[C@H](O)[C@H](O)[C@H]2O)[C@@H]1O has an Activity [4] of 4.33%, an IC50 [1] of 1.87 µM and an IC50 [2] of 2.24 µM. For the same compound, the IC50 [3] was 2.36 µM, the Activity [5] was “Active” and the Activity [6] was “Active”. The Activity [7] was “Active”, the Activity [8] was “Active” and the Activity [9] was 8.43%. The Activity [10] was 2.2%, the Activity [11] was 2.42% and the Activity [12] was 18.44%. The Activity [13] was 2.84%, the Activity [14] was 3.26% and the Activity [15] was 29.61%. For the same compound, the Activity [16] was 18.81%, the Activity [17] was “Dose-dependent effect” and the Activity [18] was “Dose-dependent effect”.
